Measured values from patent US20040142864A1, “Crystal structure of PIM-1 kinase” (Plexxikon, Inc., priority 2002, published 2004).

Molecular target: PIM-1 (Homo sapiens, UniProt P11309)
Assay: PY20 AlphaScreen kit kinase inhibition assay

PIM-1, sequence (P11309 whole entry): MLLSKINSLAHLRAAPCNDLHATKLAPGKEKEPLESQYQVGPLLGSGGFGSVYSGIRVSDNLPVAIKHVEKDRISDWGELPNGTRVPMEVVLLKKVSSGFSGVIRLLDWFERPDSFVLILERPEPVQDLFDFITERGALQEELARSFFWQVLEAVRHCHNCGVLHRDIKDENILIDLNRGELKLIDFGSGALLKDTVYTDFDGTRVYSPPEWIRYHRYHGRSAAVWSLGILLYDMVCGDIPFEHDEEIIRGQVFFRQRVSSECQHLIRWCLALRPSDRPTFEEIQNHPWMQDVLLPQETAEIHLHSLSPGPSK

IC50: 10 nM
Structure (SMILES): CSc1cccc(Nc2ncc3cc(-c4c(Cl)cccc4Cl)c(=O)n(C)c3n2)c1
